Columns and labels:
iPSC [1] = assay: Effect of CHIR-99021 concentration in NK-MED-005c medium on iNK induction; format: cell-based, human; conditions: 2.5, 3.5 or 4.5 μM, differentiation day 20, AP2.0
Experimental: To determine the optimal concentration of CHIR-99021, different concentrations (2.5 μM, 3.5 μM or 4.5 μM) were added to the NK-MED-005c medium (Table 30) to test their effect on iNK induction. Differentiation proceeded according to Protocol 2 (AP2.0) as described in Example 11. Cells were collected and analyzed using flow cytometry to detect CD45^+CD56^+ cells at differentiation day 20.

iPSC [2] = assay: CD45/CD56 expression on day 28 after early modulation of WNT signaling; format: cell-based, human
Experimental: For iPSC-HSPC differentiation optimization, CD45/CD56 expression on day 28 was measured (FIG. 10). The HSPC cells on day 6 were further differentiated to iNK in the StemPro-34—based differentiation media Table 12) in the presence of IL7, IL15, SCF. Flt3L, (IL3 was added for days 6-14 only). […] However, it was not an optimal condition as the single cells production and expansion was lower than in conditions in the presence of Activin A molecule (data not shown). Due to low CD56^+ cells formation on day 28, the HSPC to iNK differentiation conditions was optimized.

HSPC [3] = assay: Stage II basal media testing (HSPC to iNK), day 21 single cells; format: cell-based, human; conditions: in StemPro-based media
Experimental: This Example investigates the use of various alternative base media that can be used for Stage II differentiation. […] The HSPC to iNK differentiation from day 6 further on was done in StemPro-34—based media (Table 12). […] In this Example, the […] until day 6 as described in Example 2 (i.e., steps 1-5). Each media was supplemented with 20 ng/mL IL7, 20 ng/mL IL15, 20 ng/mL SCF, 20 ng/mL Flt3L and 5 ng/mL of IL-3 for days 6-14 and 20 ng/mL IL7, 20 ng/mL IL15, 20 ng/mL SCF, 20 ng/mL Flt3L for days 14-21 of differentiation.
Day 21 single cells were profiled for CD45^+/CD56^+, CD56^+/NKG2D^+, CD56^+/CD94^+, and CD56^+/CD16^+ expression (FIG. 12). […] The DMEM/F12 2:1 basal media was chosen due to its price and higher availability for scale up production.

HSPC [4] = assay: Effect of β-mercaptoethanol on differentiation, CD45 and CD56 expression; format: cell-based; conditions: 50 μM in DMEM/F12 media with low zinc, low human serum
Experimental: To determine the effects of β-mercaptoethanol on differentiation, CD45+ and CD56+ expression was measured in cells cultured in Stempro34 media, DMEM/F12 media with low zinc, low human serum, and no β-mercaptoethanol (bME), or DMEM/F12 media with low zinc, low human serum, and 50 μM β-mercaptoethanol.

HSPC [5] = assay: Design of Experiment (DoE) I, day 6 to day 20; format: cell-based, human; conditions: differentiation and number of cells at day 20
Experimental: This Example reports the identification of optimized concentrations for certain components in the base media. A design of Experiment (DoE) study was performed to determine the concentrations of zinc sulfate, β-mercaptoethanol, human serum, and glucose that would provide the most differentiation and increased number of cells at differentiation day 20. These factors were selected based on known chemical/biological effects of them in affect general cell proliferation and differentiation. Potential positive/negative involvement of β-mercaptoethanol, zinc ion, human serum, and glucose in NIK cell or lymphocyte cell proliferation, killer cell receptor function, and cytotoxicity have been previously reported. There were no known studies conducted on testing optimal range of these factors in NK cell induction from HSPC.

iPSC [6] = assay: Effect of WNT-C59 in NK-MED-006 medium on iNK induction; format: cell-based, human; conditions: 2 μM, day 20 cultures, AP2.0
Experimental: The effect of including WNT-C59 (2 μM) in NK-MED-006 medium during iNK induction using the AP2.0 protocol was examined. […] The addition of WNT-C59 increased proportion of cells expressing non-NK lineage markers.

Cc1cnc(-c2cnc(NCCNc3ccc(C#N)cn3)nc2-c2ccc(Cl)cc2Cl)[nH]1 [CHIR-99021, 6-[[2-[[4-(2,4-Dichlorophenyl)-5-(5-methyl-1H-imidazol-2-yl)-2-pyrimidinyl]amino]ethyl]amino]-3-pyridinecarbonitrile]
proportion of CD45+CD56+ cells (iPSC [1]): highest proportion of CD45^+CD56^+ cells were collected using a moderate amount
CD56+ percentage (iPSC [2]; day 28, condition #5, StemPro-34 based media): highest
single cells production and expansion (iPSC [2]; versus conditions with Activin A, data not shown): lower

OCCS [β-mercaptoethanol]
iNK differentiation (HSPC [3]): prevented iNK differentiation
effect on iNK cell induction (HSPC [4]): negative effect
direction of effect in DoE I (HSPC [5]): negative effect

O=S(=O)([O-])[O-].[Zn+2] [Zinc sulfate]
direction of effect in DoE I (HSPC [5]): positive effect

Cc1cc(-c2ccc(CC(=O)Nc3ccc(-c4cccnc4)cc3)cc2)ccn1 [WNT-C59]
proportion of cells expressing non-NK lineage markers (iPSC [6]): increased
proportion of iNK that expressed the myeloid progenitor marker CD33 (iPSC [6]): altered

— US12241087B2, “Compositions and methods for differentiating stem cells into NK cells” (CRISPR THERAPEUTICS AG, priority 2020, dated 2025)
